Laboratory results taken from patent publication US9809853B2, “Calcium-activated chloride channel involved in human sweat formation” (BRAIN Biotechnology Research and Information Network AG, priority 2012, dated 2017).

Biological target: T1, TMEM16A(acΔe3) (Homo sapiens, UniProt Q5XXA6)
T1 construct: expressed in transfected cells
T1 sequence (Q5XXA6 1-927 isoform Q5XXA6-4): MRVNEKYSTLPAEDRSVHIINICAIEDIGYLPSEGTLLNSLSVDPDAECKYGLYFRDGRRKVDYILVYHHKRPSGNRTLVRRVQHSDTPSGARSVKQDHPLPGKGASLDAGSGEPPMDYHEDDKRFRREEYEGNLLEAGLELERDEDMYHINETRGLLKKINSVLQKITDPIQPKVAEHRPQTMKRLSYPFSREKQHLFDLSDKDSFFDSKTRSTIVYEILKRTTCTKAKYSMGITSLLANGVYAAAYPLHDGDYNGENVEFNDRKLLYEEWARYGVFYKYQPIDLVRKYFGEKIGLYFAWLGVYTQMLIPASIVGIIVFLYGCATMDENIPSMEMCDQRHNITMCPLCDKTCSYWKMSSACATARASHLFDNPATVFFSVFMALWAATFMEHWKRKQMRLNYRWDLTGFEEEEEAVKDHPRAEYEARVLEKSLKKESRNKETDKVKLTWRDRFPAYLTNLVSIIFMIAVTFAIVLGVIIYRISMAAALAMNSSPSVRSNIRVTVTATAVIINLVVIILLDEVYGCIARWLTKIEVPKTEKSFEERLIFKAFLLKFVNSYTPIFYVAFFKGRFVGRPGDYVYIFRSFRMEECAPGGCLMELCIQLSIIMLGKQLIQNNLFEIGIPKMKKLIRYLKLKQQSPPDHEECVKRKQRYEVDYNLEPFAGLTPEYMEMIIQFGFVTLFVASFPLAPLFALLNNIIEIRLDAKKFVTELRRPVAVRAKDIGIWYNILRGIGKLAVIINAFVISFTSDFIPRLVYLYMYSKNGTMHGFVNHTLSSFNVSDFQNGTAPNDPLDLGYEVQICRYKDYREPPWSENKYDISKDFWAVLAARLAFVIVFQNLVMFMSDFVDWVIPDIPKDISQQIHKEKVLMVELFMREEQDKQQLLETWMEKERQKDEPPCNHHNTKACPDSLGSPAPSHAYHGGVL
Experiment: hsYFP quenching assay in NCL-SG3-hsYFP-TMEM16A(acΔe3) cells
Type: cell-based
Conditions: 330 μM ATP; for Effect of pretreatment on hsYFP quenching / Ca^2+-dependent Cl^− secretion after ATP: cells overexpressing TMEM16A(acΔe3)
Experimental: NCL-SG3-hsYFP, NCL-SG 3-hsYFP-TMEM16A(ac) and NCL-SG3-hsYFP-TMEM16A(acΔe3) cells were untreated (basal activity) or stimulated with ATP (330 μM). Quenching of hsYFP fluorescence was determined. The rate of I^− influx (sec^−1) was calculated from the initial slope of measured hsYFP fluorescence (ΔYFP fluorescence/Δtime) and is a direct measure of CaCC activity. For better comparison fold changes compared to basal activity of parental cells are shown. […] All influx rate differences are higly statistically significant, except the basal influx rate of parental and TMEM16A(ac) overexpressing NCL-SG3-hsYFP cells (Student's t-test, two-tailed; *** p-value<0.0001).
TMEM16A(ac) and TMEM16A(acΔe3) are present in human eccrine sweat glands and were therefore obtained by RT-PCR amplification using TRIzol® (Invitrogen) extracted RNA from freshly isolated human eccrine sweat glands using oligonucleotides (forward 5′-[…]; reverse 5′-[…]) SEQ ID NOS: 5 and 6 , which amplify full-length TMEM16A, and subsequently cloned into the proprietary eukaryotic gene expression plasmid (pEF1α-TMEM16A(ac) and pEF1α-TMEM16A(acΔe3), FIG. 6A). […] Both genes are coupled by an internal ribosomal entry site (IRES) to enable efficient translation of both open reading frames located on the same mRNA. […]
Taken together, NCL-SG3-hsYFP cells can be used to monitor Ca^2+-dependent Cl^− fluxes, which represent the initial step in primary sweat formation in sweat gland cells. […] Microplates were transferred into an automated fluorescence plate reader (FlexStation®, Molecular Devices) and cellular hsYFP fluorescence was continuously recorded every 3.5 sec until end of the experiment (excitation at 485 nm, emission at 535 nm, cutoff 515 nm). […] NCL-SG3-hsYFP cells allow quantitative evaluation of in vivo Cl^− channel activity (FIGS. 9 and 10D). To determine the exact rate of Cl^− efflux/I^− influx the hsYFP fluorescence was plotted against time (ΔYFP fluorescence/Δtime). […]

| SMILES | ATP-induced activity (I^− influx rate, fold) (TMEM16A(acΔe3) overexpressing cells) | Effect of pretreatment on hsYFP quenching / Ca^2+-dependent Cl^− secretion after ATP | Effect of pretreatment on hsYFP quenching / Ca^2+-dependent Cl^− secretion after ATP (listed as tannic acid) |
| --- | --- | --- | --- |
| Nc1ncnc2c1ncn2[C@@H]1O[C@H](COP(=O)(O)OP(=O)(O)OP(=O)(O)O)[C@@H](O)[C@H]1O [ATP] | 2 fold |  |  |
| O=C(OC[C@H]1O[C@@H](OC(=O)c2cc(O)c(O)c(OC(=O)c3cc(O)c(O)c(O)c3)c2)[C@H](OC(=O)c2cc(O)c(O)c(OC(=O)c3cc(O)c(O)c(O)c3)c2)[C@@H](OC(=O)c2cc(O)c(O)c(OC(=O)c3cc(O)c(O)c(O)c3)c2)[C@@H]1OC(=O)c1cc(O)c(O)c(OC(=O)c2cc(O)c(O)c(O)c2)c1)c1cc(O)c(O)c(OC(=O)c2cc(O)c(O)c(O)c2)c1 [TA, tannic acid] |  | significant reduction of hsYFP quenching | inhibited |
